Measured values taken from patent publication US6358966B2, “Treatment of depression” (H. Lundbeck A/S, priority 1998, dated 2002).

Tests used:
[1] = system: black/white exploration test in rats; details: cited from earlier work
sigma2 = details: cited from earlier work
[2] = system: chronic mild stress induced anhedonia in rats; assay: chronic mild stress induced anhedonia in rats (sucrose consumption); format: in vivo, Male Wistar rats
Description: The model of chronic mild stress induced anhedonia in rats. […] This model is based on the observation that chronic mild stress causes a gradual decrease in sensitivity to rewards, for example consumption of sucrose, and that this decrease is dose-dependently reversed by chronic treatment with antidepressants. The method has previously been described and more information with respect to the test appears from Willner, Paul, Psycopharmacology, 1997, 134, 319-329. Male Wistar rats were trained to consume a 1% sucrose solution by nine 1-hour baseline tests in which sucrose was presented in the home cage following 14 h food and water deprivation. One group of animals was subjected to a chronic mild stress procedure for a period of 9 consecutive weeks. Each week of the stress regime consisted of two periods of food and water deprivation, two periods of 45-degree cage tilt, two periods of intermittent illumination (light on and off every 2 h), two periods of soiled cage (250 ml water saw dust bedding), two periods of paired housing, two periods of low stroboscobic illumination (150 flashes/min) and two periods of no stress. All stress periods were of 12-14 hours duration and followed continuously, day and night. Control animals were housed in separate rooms with food and water freely available except for a 14-h period preceding each sucrose test, and they had no contact with stressed animals. Stressed animals as well as control animals were divided into matched subgroups, and for subsequent five weeks they received daily intraperitoneal injections (1 ml/kg body weight) of vehicle (minimum amount of propylene glycol and methane sulfonic acid (1:1) diluted with water) or test compound. Sucrose tests were carried out 24 hours following to last drug treatment.

psychosis = details: cited from earlier work

SMILES	anxiolytic activity in the black/white exploration test [1]	sigma ligand potency and selectivity (sigma2)	consumption of sucrose in the control animals ([2]; non-stressed control rats, daily i.p. for five weeks)	sucrose intake in stressed animals versus initial scores ([2]; stressed rats, 1.0 mg/kg daily i.p.)	reversal of chronic mild stress induced deficit in sucrose intake ([2]; stressed rats, 1.0 mg/kg daily i.p. for five weeks)	clinical effect in the treatment of psychosis (psychosis)
Fc1ccc(-n2cc(CCCCN3CCC4(CC3)OCc3ccccc34)c3ccccc32)cc1 [compound of the invention, 1′-[4-[1-(4-fluorophenyl)-1H-indole-3-yl]-1-butyl]-spiro[isobenzofuran-1(3H),4′-piperidine]]	active over a large dose range	potent and selective sigma ligand, in particular a sigma2 ligand	did not significantly affect	significantly increased from initial scores after three, four and five weeks	able to reverse	–
C[C@@H]1CN(CCCn2c3ccccc3c3ccccc32)C[C@H](C)N1 [rimcazole]	–	–	–	–	–	clinically shows effect in the treatment of psychosis
